Reference: PMC12841663, “Antiprotozoal Potential of Cultivated Geranium macrorrhizum Against Giardia duodenalis, Trichomonas gallinae and Leishmania infantum” (International Journal of Molecular Sciences, 2026)
Converted amounts (≈) assume the structure as drawn.

How the values were obtained:
[1] = tested on: DH82 canine macrophages; test: Cytotoxicity of germacrone on DH82 macrophages (MTT); format: cell-based; settings: at concentrations of 50 and 100 μg/mL
Procedure: (§1) Canine DH82 (ATCC®-CRL-10389TM) macrophages were maintained in Dulbecco’s modified Eagle’s medium (DMEM) (Thermo Fisher Scientific, Waltham, MA, USA) supplemented with 10% heat-inactivated FBS (Thermo Fisher Scientific, Waltham, MA, USA), and Pen-Strep at 37 °C in 5% CO2.
(§2) DH82 canine macrophages (5 × 10^4 per well) were seeded in 96-well plates in DMEM and kept overnight at 37 °C and 5% CO2. After washing with PBS, germacrone was added in varying concentrations (10, 50 and 100 μg/mL). After 48 h of treatment, cell viability was determined by the MTT method using a spectrophotometer (Multiskan EX, Thermo Electron Corporation, Vantaa, Finland) at 570 nm. The results were expressed as the cytotoxic concentration of 50% of the cell population (CC50). Amphotericin B (Gibco, Thermo Fisher Scientific, Grand Island, NY, USA) at 1 μg/mL was used as the reference drug. The assays were performed in two independent experiments, each in quadruplicate.

[2] = as above; format: cell-based, canine; settings: dog, DH82 macrophages; 48 h treatment; MTT; R^2 98.4
Procedure: as §1, §2

[3] = tested on: T. gallinae trophozoites; test: Anti-Trichomonas activity assay (MTT viability); format: cell-based; settings: pure compounds
Procedure: The anti-Trichomonas (AT) activity assay utilized T. gallinae trophozoites from an isolate obtained from a wood pigeon by Dr. […] EOs and pure compounds were solved in DMSO (Sigma, Madrid, Spain) (<1% final concentration). […] Trophozoites/promastigotes viability was assessed using the modified MTT colorimetric assay, as described previously in the literature, with results further validated by microscopic examination. The plate was analyzed in a spectrophotometer at a wavelength of 570 nm. The percentage of antiparasitic activity was calculated as growth inhibition, using the following formula: % AT = 100 - [(Ap - Ab) ÷ (Ac - Ab)] × 100, where Ap is the absorbance of the tested product, Ab the absorbance of the blank and Ac the absorbance of the control wells (culture without treatment). […] Metronidazole (Acros Organics, Madrid, Spain) served as a reference compound for anti-Giardia activity and Anti-Trichomonas activity and amphotericin B for anti-Leishmania activity. Data was analyzed using STATGRAPHICS Centurion XIX ([…].com) (Statgraphics Technologies, Inc., The Plains, VA, USA). The mammalian cells and trophozoites viability were tested with each compound in a dose-response experiment to calculate their relative potency (CC50 or IC50 value, respectively).

[4] = tested on: L. infantum promastigotes; test: Morphological evaluation by light microscopy (Diff-Quik), L. infantum; format: cell-based, Leishmania infantum; settings: germacrone 100 µg/mL
Procedure: L. infantum, T. gallinae and G. duodenalis were studied at 0, and 48 h after treatment with germacrone (100 µg/mL), and controls (DMSO 1%, metronidazole at 10 µg/mL for T. gallinae and G. duodenalis and amphotericin B at 1 µg/mL for L. infantum).
For L. infantum and T. gallinae, cultures in the exponential growth phase (10^7 promastigotes/mL and 5 × 10^5 trophozoites/mL, respectively) were treated in 96-well microplates. At each time point, quadruplicates were assigned per condition: growth control, germacrone, and the corresponding positive control (metronidazole or amphotericin B). For microscopy, quadruplicate wells corresponding to the same condition/time point were pooled prior to centrifugation to obtain sufficient biomass and a representative pellet for smear preparation. Pooled samples per condition/time point were centrifuged, resuspended in FBS and spread onto microscope slides. Once dried, samples were fixed and stained with Diff-Quik (Medion Diagnostic AG, Düdingen, Switzerland) following the manufacturer’s instructions. Additionally, three wells per condition (triplicates) were used for the MTT assay, with absorbance measured by spectrophotometry after 48 h.
Morphological changes were analyzed using light microscopy. Experiments were performed as independent biological replicates on different plates, and one Diff-Quik stained smear was obtained per condition and time point per biological replicate. For morphometric analysis, a total of 30 trophozoites per condition and time point were measured across the independent biological replicates and were selected by consecutive sampling during a predefined serpentine (zig-zag) scan across the preparation. Up to two eligible trophozoites per field (intact, well-focused and non-overlapping) were measured in sequential fields until n = 30 was reached, avoiding subjective selection of “representative” cells. Overlapping, partially visible, out-of-focus, edge-of-field, or debris-obscured trophozoites were excluded a priori. Trophozoites were photographed using a researcher’s mobile phone mounted to the microscope ocular. Calibration was performed at the same magnification using a stage micrometre and applied in ImageJ v. 1.54d. One Diff-Quik stained smear was obtained per condition/time point per biological replicate Cell length, cell width, cell surface, nuclear length, nuclear width, axoneme (only Giardia), and length of axostyle (only T. gallinae) were measured with ImageJ software, and the data were recorded in an Excel database for statistical analysis.
The Shapiro–Wilk test was used to assess the normality of the morphological variables. When data followed a normal distribution, Student’s t-test was applied; otherwise, non-parametric tests, such as the Mann–Whitney U test, was used. Values of p < 0.05 were considered significant. For the morphological analysis, the mean, standard deviation, median, and interquartile range were calculated using SPSS version 20 (IBM Corp., Armonk, NY, USA).

Compound: CC(C)=C1C/C=C(\C)CC/C=C(\C)CC1=O [Compound 2, germacrone]
- effect on canine macrophages [1]: lethal
- CC50 at 48 h [2]: 12.9 µg/mL (≈ 59.1 µM)
- IC50 [3]: 45.8 µg/mL (≈ 210 µM)
- cell length vs control ([4]; 0.5 and 48 h, control DMSO 1%): initial increase at 0.5 h but subsequently decreased at 48 h
- cell surface area vs control ([4]; 0.5 and 48 h, control DMSO 1%): transiently increased at 0.5 h with no significant changes detected at 48 h
- cell width vs control ([4]; 0.5 and 48 h, control DMSO 1%): increased significantly at both 0.5 and 48 h
- morphological changes (light microscopy) ([4]; 48 h of exposure, Diff-Quik): less pronounced
